Laboratory results reported in ChEMBL document CHEMBL1201862, “PubChem BioAssay data set” (2004).
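Compound exposure: 48 hours, 5 concentrations, 96-well plates. The concentration for 50% growth inhibition is given as GI50.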 Activity calls are given as the source filed them. Cut-off read from the data, not from the text of the source: active = GI50 up to about 1.1 µM and inactive = higher.

Columns and labels:
Experiment in all cases: NCI tumour cell line growth inhibition, 48 h
HOP-18 = system: HOP-18
DMS-114 = system: DMS-114
KM-20L2 = system: KM-20L2
XF498 = system: XF498
DLD-1 = system: DLD-1
DMS-273 = system: DMS-273
M19-MEL = system: M19-MEL
LXFL 529 = system: LXFL 529
RXF 631 = system: RXF 631

| SMILES | GI50 (HOP-18) | GI50 (DMS-114) | GI50 (KM-20L2) | GI50 (XF498) | GI50 (DLD-1) | GI50 (DMS-273) | GI50 (M19-MEL) | GI50 (LXFL 529) | GI50 (RXF 631) |
| --- | --- | --- | --- | --- | --- | --- | --- | --- | --- |
| CC1=C(N(C)C)C(=O)c2nc3n(c2C1=O)CCC3OC(N)=O (stereo not drawn) | 17.7 µM (inactive) | 16.1 µM (inactive) | 20.2 µM (inactive) | 23.9 µM (inactive) | 16.2 µM (inactive) | 15.8 µM (inactive) | 1.7 µM (inactive) |  |  |
| CC(N)C(=O)c1ccc(O)cc1 (stereo not drawn) | > 100 µM (inactive) | > 100 µM (inactive) | > 100 µM (inactive) |  | > 100 µM (inactive) | > 100 µM (inactive) |  | > 100 µM (inactive) | > 100 µM (inactive) |
| O=C(C#Cc1ccccc1)Nc1ccccc1CC(c1c[nH]c2ccccc12)c1c[nH]c2ccccc12 |  |  |  | 29.4 µM (inactive) | 17 µM (inactive) | 11.3 µM (inactive) | 16.4 µM (inactive) | 6.35 µM (inactive) | 21.3 µM (inactive) |
| Cc1ccc2nc(NC(=O)C(=O)CC(=O)c3cccc4ccccc34)sc2c1 | 24.7 µM (inactive) |  | 46.3 µM (inactive) | 45.9 µM (inactive) | 49.7 µM (inactive) | 40.4 µM (inactive) | 35.5 µM (inactive) | 45.6 µM (inactive) |  |
| CC1CN1P1(N2CC2C)=NP(N2CC2C)(N2CC2C)=NP(N2CC2C)(N2CC2C)=N1 (stereo not drawn) | > 50 µM (inactive) |  | > 50 µM (inactive) | > 50 µM (inactive) | > 50 µM (inactive) | > 50 µM (inactive) | > 50 µM (inactive) | > 50 µM (inactive) |  |
| O=C(O)CNCc1c2ccccc2[n+]([O-])c2ccccc12 | 52.7 µM (inactive) | 25.9 µM (inactive) | 42.4 µM (inactive) |  | 39.4 µM (inactive) | 46.7 µM (inactive) | 85.7 µM (inactive) | 27.7 µM (inactive) | 83.4 µM (inactive) |
| COc1cc2c3c(c1OCc1ccccc1)NCCC3NCC2 (stereo not drawn) |  | > 100 µM (inactive) | > 100 µM (inactive) | > 100 µM (inactive) | > 100 µM (inactive) | > 100 µM (inactive) | > 100 µM (inactive) | > 100 µM (inactive) | > 100 µM (inactive) |
| [O-][S+]1c2ccccc2N=C(c2ccc3ccccc3c2)CC1c1ccccc1 (stereo not drawn) |  |  | 18.7 µM (inactive) | 23.9 µM (inactive) | 19 µM (inactive) | 38.6 µM (inactive) | 17.9 µM (inactive) | 16.1 µM (inactive) |  |
| CCOC(=O)c1c[nH]c2c(ccc3ncccc32)c1=O | > 100 µM (inactive) | > 100 µM (inactive) | > 100 µM (inactive) |  | > 100 µM (inactive) | > 100 µM (inactive) | > 100 µM (inactive) | > 100 µM (inactive) |  |
| COc1ccc(OC)c(NC(=O)C2=C(C)NC(C)=C(C(=O)Nc3cc(OC)ccc3OC)C2c2ccco2)c1 |  | > 100 µM (inactive) | > 100 µM (inactive) | > 100 µM (inactive) | > 100 µM (inactive) | 95.9 µM (inactive) | > 100 µM (inactive) | > 100 µM (inactive) |  |
| O=C1CCC(=O)C12CCc1cccc(O)c12 | > 100 µM (inactive) | > 100 µM (inactive) | > 100 µM (inactive) | > 100 µM (inactive) | > 100 µM (inactive) | > 100 µM (inactive) | > 100 µM (inactive) | > 100 µM (inactive) |  |
| CN(C)c1nc(N(C)C)nc(N(C)CN(C)c2nc(N(C)C)nc(N(C)C)n2)n1 | > 100 µM (inactive) | > 100 µM (inactive) | > 100 µM (inactive) |  | > 100 µM (inactive) | > 100 µM (inactive) | > 100 µM (inactive) | 77.6 µM (inactive) |  |
| CCCOC(=O)C1CCC(=O)N1C(=O)C(C)Cl (stereo not drawn) | > 100 µM (inactive) | > 100 µM (inactive) | > 100 µM (inactive) | > 100 µM (inactive) | > 100 µM (inactive) | > 100 µM (inactive) | > 100 µM (inactive) | > 100 µM (inactive) |  |
| Cc1c2ccncc2c(C)c2c1[nH]c1ccc(Oc3ccccc3)cc12 | 6.04 µM (inactive) | 2.3 µM (inactive) | 1.87 µM (inactive) | 1.45 µM (inactive) | 2.37 µM (inactive) | 1.76 µM (inactive) | 2.43 µM (inactive) | 2.04 µM (inactive) | 2.57 µM (inactive) |
| COc1cc(C2c3cc4c(cc3[C@@H](NCCN3CCCCC3)C3COC(=O)[C@H]23)OCO4)cc(OC)c1O (stereo partly drawn) | 0.303 µM (active) |  | 1.17 µM (inactive) |  | 1.58 µM (inactive) | 0.0726 µM (active) | 0.805 µM (active) | 1.8 µM (inactive) |  |
| Cc1c(O)c(=O)ccn1CCO | > 100 µM (inactive) | > 100 µM (inactive) | > 100 µM (inactive) | > 100 µM (inactive) | > 100 µM (inactive) | > 10 µM (inactive) | > 100 µM (inactive) | > 100 µM (inactive) |  |
| CN1CCN(C)C12C=CC=CC21CC1 | > 100 µM (inactive) | > 100 µM (inactive) | > 100 µM (inactive) | > 100 µM (inactive) | > 100 µM (inactive) | > 100 µM (inactive) | > 100 µM (inactive) |  | > 100 µM (inactive) |
| C/C(=N\N=C(\N)S)c1ccc(Oc2ccccc2)cc1 | 14.1 µM (inactive) | 3.03 µM (inactive) | 10.7 µM (inactive) |  | 3.44 µM (inactive) | 5.96 µM (inactive) | 15.1 µM (inactive) | 3.96 µM (inactive) | 13.8 µM (inactive) |
| CCN(CC)c1ccc(C2N3CCCCC3[C@@H]3c4[nH]c5ccccc5c4CCN23)cc1 (stereo partly drawn) | > 100 µM (inactive) | 14 µM (inactive) | 29.3 µM (inactive) | 17.1 µM (inactive) | 26 µM (inactive) | 32.9 µM (inactive) | 23.7 µM (inactive) | 21.3 µM (inactive) |  |
| Cc1ccc(O)c(/N=N/c2ccc(S(=O)(=O)O)cc2)n1 | > 100 µM (inactive) | > 100 µM (inactive) | > 100 µM (inactive) |  | > 100 µM (inactive) | > 100 µM (inactive) | > 100 µM (inactive) | > 100 µM (inactive) |  |
| O[C@]12CCCC[C@H]1CCC2 |  | > 100 µM (inactive) |  | > 100 µM (inactive) |  | > 100 µM (inactive) | > 100 µM (inactive) | > 100 µM (inactive) | > 100 µM (inactive) |
| O=C1/C(=C/c2ccc3c(c2)OCO3)CCC1CN1CCOCC1 (stereo not drawn) | 17.3 µM (inactive) | 5.83 µM (inactive) | 14.8 µM (inactive) |  | 2.39 µM (inactive) | 8.79 µM (inactive) | 4.53 µM (inactive) | 2.65 µM (inactive) | 15.8 µM (inactive) |
| C[C@]12CC[C@H](O)CC1=CC[C@@H]1C2CC[C@]2(C)C(=O)N(N)C(=O)CC12 (stereo partly drawn) | > 100 µM (inactive) |  | > 100 µM (inactive) | > 100 µM (inactive) | > 100 µM (inactive) | > 100 µM (inactive) | > 100 µM (inactive) | > 100 µM (inactive) | > 100 µM (inactive) |
| Cc1c(O)c(=O)ccn1CCN | > 100 µM (inactive) | > 100 µM (inactive) | > 100 µM (inactive) |  | > 100 µM (inactive) | > 100 µM (inactive) | > 100 µM (inactive) | > 100 µM (inactive) | > 100 µM (inactive) |
| O=C1c2cccc3cc([N+](=O)[O-])cc(c23)C(=O)N1CCCN1CCN(CCCN2C(=O)c3cccc4cc([N+](=O)[O-])cc(c34)C2=O)CC1 | 1.77 µM (inactive) |  | 0.45 µM (active) | 0.0966 µM (active) | 0.0453 µM (active) |  | 0.0931 µM (active) | 0.0349 µM (active) | 0.0344 µM (active) |
| COc1ccc(OC)c(/C=C2\CCc3ccccc3C2=O)c1 | 4.85 µM (inactive) | 1.92 µM (inactive) | 2.9 µM (inactive) | 1.24 µM (inactive) | 5.36 µM (inactive) | 1.12 µM (active) | 3.72 µM (inactive) | 6.05 µM (inactive) |  |
| C[N+](C)(C)CC(=O)N/N=C(\C(=O)NC1=C(Cl)C(=O)c2ccccc2C1=O)C(C#N)c1nc(-c2ccc([N+](=O)[O-])cc2)cs1 (stereo not drawn) | 6.4 µM (inactive) | 3.26 µM (inactive) | 14 µM (inactive) | 9.46 µM (inactive) | 11.3 µM (inactive) | 9.02 µM (inactive) | 0.889 µM (active) | 7.91 µM (inactive) |  |
| CC12OC(=O)C(C#N)C1(C)C1C(=O)CCCC12 (stereo not drawn) | > 100 µM (inactive) | > 100 µM (inactive) | > 100 µM (inactive) | > 100 µM (inactive) | > 100 µM (inactive) | > 100 µM (inactive) | > 100 µM (inactive) | > 100 µM (inactive) |  |
